Data published in patent US6413747B1, “Enhancement of nucleic acid amplification by the addition of a polyamine” (Shimadzu Corporation, priority 1994, dated 2002).
“Also recorded” adds a separate entry of the source.

Legend:
HIV DNA [1] = assay: PCR with human white blood cells, 2 mM polyamine, varying number of HIV DNA copies (Experiment No. 2); assay type: biochemical, HIV-1; details: polyamine 2 mM; for number of HIV DNA copies detected (lowest): 40 cycles, copies/tube
Method: White blood cells were obtained by taking 14 μl (7×10^4 WBC) of human blood, centrifuging it and removing therefrom the supernatant. Various polyamines (2 mM), HIV DNA (1000, 100 10 and 0 copies/tube) and PCR core solution were added to the white blood cells thus collected for carrying out PCR (total 50 μl ). The same PCR core solution was used as in Experiment No. 1. The PCR was carried out for 40 cycles under the same conditions as in Experiment 1, and the amplification detection was carried out as in Experiment No. 1.

[2] = test system: DNA from LT Escherichia coli; assay type: biochemical; details: for maximum concentration of feces at which amplification bands are observed, relative to no addition of polyamine (J) / appearance of amplification bands: polyamine 1 mM; for maximum concentration of feces at which amplification bands are observed, relative to no addition of polyamine (J): 40 cycles; for reduction of inhibition of PCR due to feces (summary): human feces samples; for appearance of amplification bands: human feces
Method: A sample was obtained by making an 8% suspension of human feces in TE buffer and subjecting it to a heat treatment at 95° C. for 10 minutes. […] The detection was carried out as in Experiment No. 1.

HIV DNA [3] = assay: PCR with human white blood cells, varying polyamine concentration (Experiment No. 1); assay type: biochemical, HIV-1
Method: White blood cells were obtained by taking 14 μl (7×10^4 WBC) of human blood, centrifuging it and removing therefrom the supernatant. Various kinds of polyamine, HIV DNA (100 copies/tube) and PCR core solution were added to the white blood cells thus collected for carrying out PCR (total 50 μl).
After a preheating process of 4 minutes at 94° C., the PCR was carried out for 50 cycles under the conditions of 94° C. for 30 seconds, 60° C. for 1 minute and 72° C. for 1 minute, followed by a polymerization process at 72° C. for 7 minutes. After the PCR was completed, DNAs were detected by electrophoresis with 3% agarose gel containing TAE buffer (40 mM Tris-acetate; 1 mM EDTA, pH 8.0) with 0.5 μg/ml etidium bromide by using 5 μl of the reaction mixture.
and the numerals (1-7) in FIG. 6 indicate the final concentration of polyamine as follows: […]

[4] = test system: β-globin coding region of the mouse; assay: PCR on white blood cells of mouse blood added to human blood, with spermidine (Example No. 2); assay type: biochemical; details: spermidine 2 mM, no purification of DNA
Method: Used as the sample was 23 μl of human blood (with 6000 white blood cells/microliter) into which 5 μl of mouse blood, diluted step-wise with a phosphate buffer, was added. After the sample was subjected to a lysis process of red blood cells, the white blood cells were precipitated by centrifugation and the supernatant was removed. Polyamine and PCR core solution were added to the precipitated white cells. The primers for the PCR were oligonucleotide (P3, sequence number=3) homologous to plus-chain and oligonucleotide (P4, sequence number=4) homologous to minus-chain, which are located in the β-globin coding region of the mouse and what gives 174 bp PCR products: where
The same PCR core solution was used as in Example No. 1 except that the primers were P3 and P4. The total amount of the PCR reaction solution was 100 μl, and 10 μl of spermidine solution (final concentration: 2 mM) was added. PCR and detection of amplified DNA were carried out as in Example No. 1. […] If polyamine is added (Group A), by contrast, the inhibition of the amplification reaction is effectively removed, and the presence of PCR products can be detected if there are as few as about ten white blood cells of the mouse without any purification of DNA.

DNA = assay: PCR with soil or tobacco leaf extract and spermidine (Example No. 3); assay type: biochemical; details: extract from soil or tobacco leaf (Groups B and C, Lanes 2-4)
Method: Used as the sample was 100 mg of sandy soil from a rice field or 100 mg of homogenized tobacco leaf. The sample was dissolved with 0.1 M EDTA and 0.1% SDS, purified with weakly negative ion-exchange resin (DEAE-Sepharose, fast flow (Pharmacia)), and eluted with 400 μl of 10 mM of tris-HCl (pH 7.0) containing 1 M NaCl. The extract which was colored light brown or light green indicated existence of much contamination of impurities for rough purification material. PCR was carried out after polyamine and PCR core solution were added to the extract. PCR core solution was prepared by removing KCl from the core solution used in Example No. 1. The amount of the PCR core solution was 24 μl, and 3 μl each of DNA-containing extract and spermidine solution was added thereto. PCR and detection of amplified DNA was carried out as in Example No. 1.
In FIG. 5, A indicates a positive control group containing only DNA, B indicates a group with soil extract mixed thereto, and C indicates a group with a tobacco leaf extract mixed thereto. The final concentration of polyamine was zero in Lane 1, 0.5 mM in Lane 2, 1 mM in Lane 3, 2 mM in Lane 4, 4 mM in Lane 5 and 8 mM in Lane 6. Lane M indicates a molecular weight marker.

[5] = test system: genomic DNA purified from cotton leaves; details: DNA isolated from plants; report by Wan and Wilkins; cited from earlier work

Compound	number of HIV DNA copies detected (lowest) (HIV DNA [1])	maximum concentration of feces at which amplification bands are observed, relative to no addition of polyamine (J) [2]	reduction of inhibition of PCR due to feces (summary) [2]	other results
NCCN [A, Ethylenediamine]	10 copies	4 times	–	–
NCCCNCCCCNCCCN [G, Spermine]	could not be detected	4 times	hardly any effect	effect on PCR-inhibiting substances derived from blood (HIV DNA [3]; polyamine 0.125-8 mM, human white blood cells, 100 copies HIV DNA/tube, 50 cycles): hardly any effect; also recorded: no such effect was observed; appearance of amplification bands [2]: only thin amplification bands
NCCCCN [C, Putrescine]	10 copies	twice as large	hardly any effect	–
NCCCCNCCCN [E, Spermidine]	–	8 times	–	number of white blood cells of the mouse at which PCR products can be detected [4]: about ten; polyamine concentration at which PCR products can be detected (DNA): 0.5 to 2 mM; amplification (HIV DNA [3]; polyamine concentration 0.25 mM, human blood): No amplification; optimum concentration [5]: 0.2 to 1 mM
NCCNCCN [D, Diethylenetriamine]	10 copies	8 times	–	sensitivity relative to E (HIV DNA [1]): about 10 times; appearance of amplification bands [2]: brighter and thicker amplification bands than E
NCCNCCNCCNCCN [H, Tetraethylenepentamine]	10 copies	–	good results	–
NCCNCCNCCN [F, Triethylenetetramine]	10 copies	16 times	good results	–
Trimethylenediamine [B]	10 copies	twice as large	hardly any effect	–
